Drawing on patent publication US6350765B1, “Fungicidal mixtures based on amide compounds and azoles” (priority 2000, dated 2002), this text covers pest or weed control for eight compounds.

Read-outs that look alike come from different tables or passages of the source.

The subject of this assay is Botrytis cinerea. As to the kind of experiment: Activity against Botrytis cinerea on bell peppers (fruit disks, protective spray). The format is in vivo. As to conditions: in Capsicum, 96 h, read-out: Efficacy in % of the untreated control. The method, then: The active ingredients, separately or together, are formulated as a 10% emulsion in a mixture of 63% by weight of cyclohexanone and 27% by weight of emulsifier, and diluted with water to the desired concentration.
Evaluation is carried out by determining the infected leaf areas in percent. These percentages are converted into efficacies. The efficacy (W) is calculated as follows using Abbot's formula: […]
α corresponds to the fungal infection of the treated plants in % and β corresponds to the fungal infection of the untreated (control) plants in % An efficacy of 0 means that the infection level of the treated plants corresponds to that of the untreated control plants; an efficacy of 100 means that the treated plants were not infected.
The expected efficacies of the mixtures of the active ingredients were determined using Colby's formula [R. S. Colby, Weeds 15, 20-22 (1967)] and compared with the observed efficacies.
Colby's formula: E=x+y−x·y/100
E expected efficacy, expressed in % of the untreated control, when using the mixture of the active ingredients A and B at the concentrations a and b x efficacy, expressed in % of the untreated control, when using active ingredient A at the concentration a y efficacy, expressed in % of the untreated control, when using active ingredient B at the concentration b Activity against Botrytis cinerea on bell peppers
Disks of green bell peppers were sprayed to runoff point with an aqueous preparation of active ingredient which had been prepared is from a stock solution comprising 10% of active ingredient, 63% of cyclohexanone and 27% of emulsifier. 2 hours after the spray coating had dried on, the fruit disks were inoculated with a spore suspension of Botrytis cinerea containing 1.7×10^6 spores per ml of a 2% strength Biomalz solution. The inoculated fruit disks were subsequently incubated in humid chambers at 18° C. for 4 days. The Botrytis infection on the diseased fruit disks was then evaluated visually.
The visually determined values for the percentage of diseased leaf areas were converted into efficacies as percentage of the untreated control. An efficacy of 0 means the same disease level as in the untreated control, an efficacy of 100 means 0% disease. The expected efficacies for active ingredient combinations were determined using Colby's formula (Colby, S. R. “Calculating synergistic and antagonistic responses of herbicide Combinations”, Weeds, 15, p. 20-22, 1967) and compared with the observed efficacies.

The mark [1] stands for this setting: single active ingredient, 16 ppm in the spray liquor, green bell pepper disks, 4 days at 18° C.
[2] abbreviates: single active ingredient, 31 ppm in the spray liquor, green bell pepper disks, 4 days at 18° C.

As for `CC(C1CC1)C(O)(Cn1cncn1)c1ccc(Cl)cc1` (stereo not shown) [Compound II.2, 2-(4-chlorophenyl)-3-cyclopropyl-1-(1H-1,2,4-triazol-1-yl)-butan-2-ol], the pest or weed control at 16 ppm under setting [1] came to 0%. Also, the pest or weed control at 31 ppm under setting [2] came to 10%.

On to `O=C(Nc1ccccc1-c1ccc(Cl)cc1)c1cccnc1Cl` [Compound I.2], for which the pest or weed control at 16 ppm is 80%.

On to `CCCCC(C#N)(Cn1cncn1)c1ccc(Cl)cc1` (stereo not shown) [Compound II.17, 2-p-chlorophenyl-2-(1H-1,2,4-triazol-1-ylmethyl)hexanenitrile], for which the pest or weed control at 16 ppm under setting [1] came out at 0%.

On to `Fc1ccc(C2(Cn3cncn3)OC2c2ccccc2Cl)cc1` (stereo not shown) [Compound II.5, (Z)-2-(1H-1,2,4-triazol-1-ylmethyl)-2-(4-fluorophenyl)-3-(2-chlorophenyl)-oxirane], for which the pest or weed control at 16 ppm under setting [1] amounted to 0%. Also, the pest or weed control at 31 ppm under setting [2] stood at 0%.

On to `CCCC1COC(Cn2cncn2)(c2ccc(Cl)cc2Cl)O1` (racemic) [Compound II.12, (±)-1-[2-(2,4-dichlorophenyl)-4-propyl-1,3-dioxolan-2-ylmethyl]-1H-1,2,4-triazole], for which, under setting [1], the pest or weed control at 16 ppm is 0%.

`C[Si](Cn1cncn1)(c1ccc(F)cc1)c1ccc(F)cc1` [Compound II.8, bis(4-fluorophenyl)(methyl)(1H-1,2,4-triazol-1-ylmethyl)-silane]: the pest or weed control at 16 ppm under setting [1] turned out to be 0%. Moreover, under setting [2], the pest or weed control at 31 ppm stood at 0%.

Take `O=C(Nc1ccccc1-c1ccc(F)cc1)c1cccnc1Cl` [Compound I.1]: the pest or weed control at 16 ppm was determined as 10% and the pest or weed control at 31 ppm turned out to be 60%.

For the compound `CCCN(CCOc1c(Cl)cc(Cl)cc1Cl)C(=O)n1ccnc1` [Compound II.11, N-propyl-N-[2-(2,4,^6-trichlorophenoxy)ethyl]imidazol-1-carboxamide], the pest or weed control at 16 ppm came out at 0% and the pest or weed control at 31 ppm was 0%.
